{"source": "patent US20230220063A1", "about": "“IL-1BETA BINDING ANTIBODIES FOR USE IN TREATING CANCER” (NOVARTIS AG, priority 2017, published 2023)", "key": {"[1]": {"tested_on": "incident cancers in post-myocardial infarction patients with hsCRP ≥2 mg/L", "experiment": "CANTOS trial: incident cancers, cancer mortality, canakinumab vs placebo", "assay_type": "in vivo, human"}, "[2]": {"tested_on": "patients with a prior heart attack and inflammatory atherosclerosis", "experiment": "CANTOS primary endpoint: major adverse cardiovascular events (MACE)", "assay_type": "in vivo, human", "conditions": "in combination with standard of care", "excerpt": "The present invention arose, at least in part, from the analysis of the data generated from the CANTOS trial, which is a randomized, double-blind, placebo-controlled, event-driven trial. […] Participants were followed for incident cancer diagnoses over a median follow-up period of 3.7 years.\nMACE is a composite of cardiovascular death, non-fatal myocardial infarction and non-fatal stroke."}, "[3]": {"tested_on": "post-myocardial infarction patients with elevated hsCRP"}}, "data": [{"substance": "canakinumab: high-affinity, fully human monoclonal antibody of the IgG1/k to interleukin-1β; INN number 8836", "values": [{"measurement": "Genitourinary: Endometrial/Uterine, incidence rate (number)", "setting": "[1]; 300 mg SC q 3 months", "value": "0.03(3) per 100 person years"}, {"measurement": "Genitourinary: Ovarian, incidence rate (number)", "setting": "[1]; 300 mg SC q 3 months", "value": 0, "unit": "per 100 person years"}, {"measurement": "Genitourinary: Prostate, incidence rate (number)", "setting": "[1]; 300 mg SC q 3 months", "value": "0.17(15) per 100 person years"}, {"measurement": "Genitourinary: Testicular, incidence rate (number)", "setting": "[1]; 300 mg SC q 3 months", "value": 0, "unit": "per 100 person years"}, {"measurement": "Hematopoetic: Leukemia, incidence rate (number)", "setting": "[1]; 300 mg SC q 3 months", "value": "0.01(1) per 100 person years"}, {"measurement": "Hematopoetic: Lymphoma, incidence rate (number)", "setting": "[1]; 300 mg SC q 3 months", "value": "0.07(6) per 100 person years"}, {"measurement": "Hematopoetic: Multiple myeloma, incidence rate (number)", "setting": "[1]; 300 mg SC q 3 months", "value": "0.02(2) per 100 person years"}, {"measurement": "Kidney, incidence rate (number)", "setting": "[1]; 300 mg SC q 3 months", "value": "0.07(6) per 100 person years"}, {"measurement": "Liver, incidence rate (number)", "setting": "[1]; 300 mg SC q 3 months", "value": "0.03(3) per 100 person years"}, {"measurement": "Lung Cancers: Adenocarcinoma or poorly differentiated large cell carcinoma or unspecified, incidence rate (number)", "setting": "[1]; 300 mg SC q 3 months", "value": 0.12, "unit": "per 100 person years"}, {"measurement": "Lung Cancers: Pleural cancer, incidence rate (number)", "setting": "[1]; 300 mg SC q 3 months", "value": 0, "unit": "per 100 person years"}, {"measurement": "Lung Cancers: Small cell lung cancer, incidence rate (number)", "setting": "[1]; 300 mg SC q 3 months", "value": "0.01 (1) per 100 person years"}, {"measurement": "Lung Cancers: Squamous cell lung carcinoma, incidence rate (number)", "setting": "[1]; 300 mg SC q 3 months", "value": "0.03 (3) per 100 person years"}, {"measurement": "Other cancer sites: Other, incidence rate (number)", "setting": "[1]; 300 mg SC q 3 months", "value": "0.02(2) per 100 person years"}, {"measurement": "Sarcoma / Bone, incidence rate (number)", "setting": "[1]; 300 mg SC q 3 months", "value": "0.01(1) per 100 person years"}, {"measurement": "Skin: Basal cell carcinoma, incidence rate (number)", "setting": "[1]; 300 mg SC q 3 months", "value": "0.21(18) per 100 person years"}, {"measurement": "Skin: Melanoma, incidence rate (number)", "setting": "[1]; 300 mg SC q 3 months", "value": "0.06(5) per 100 person years"}, {"measurement": "Skin: Other, incidence rate (number)", "setting": "[1]; 300 mg SC q 3 months", "value": "0.02(2) per 100 person years"}, {"measurement": "Skin: Squamous cell skin cancer, incidence rate (number)", "setting": "[1]; 300 mg SC q 3 months", "value": "0.27(23) per 100 person years"}, {"measurement": "Lung Cancers: Adenocarcinoma or poorly differentiated large cell carcinoma or unspecified, incidence rate (number)", "setting": "[1]; 300 mg SC q 3 months, listed as Canakinumab", "value": "0.12 (10) per 100 person years"}, {"measurement": "total cancer mortality", "setting": "[1]; 300 mg SC, vs placebo", "value": "fell by half"}, {"measurement": "Breast, incidence rate (number)", "setting": "[1]; All Doses", "value": "0.06(16) per 100 person years"}, {"measurement": "Central Nervous System, incidence rate (number)", "setting": "[1]; All Doses", "value": "0.04(10) per 100 person years"}, {"measurement": "Endocrine: Adrenal, incidence rate (number)", "setting": "[1]; All Doses", "value": "0.01(2) per 100 person years"}, {"measurement": "Endocrine: Thyroid, incidence rate (number)", "setting": "[1]; All Doses", "value": "0.02(4) per 100 person years"}, {"measurement": "Gastrointenstinal: Appendiceal, incidence rate (number)", "setting": "[1]; All Doses", "value": "0.00(1) per 100 person years"}, {"measurement": "Gastrointenstinal: Biliary, incidence rate (number)", "setting": "[1]; All Doses", "value": "0.02(5) per 100 person years"}, {"measurement": "Gastrointenstinal: Colorectal, incidence rate (number)", "setting": "[1]; All Doses", "value": "0.21(54) per 100 person years"}, {"measurement": "Gastrointenstinal: Esophageal, incidence rate (number)", "setting": "[1]; All Doses", "value": "0.06(16) per 100 person years"}, {"measurement": "Gastrointenstinal: Gastric, incidence rate (number)", "setting": "[1]; All Doses", "value": "0.04(10) per 100 person years"}, {"measurement": "Gastrointenstinal: Oral cavity/tongue, incidence rate (number)", "setting": "[1]; All Doses", "value": "0.03(8) per 100 person years"}, {"measurement": "Gastrointenstinal: Pancreatic, incidence rate (number)", "setting": "[1]; All Doses", "value": "0.05(13) per 100 person years"}, {"measurement": "Genitourinary: Bladder, incidence rate (number)", "setting": "[1]; All Doses", "value": "0.10(26) per 100 person years"}, {"measurement": "Genitourinary: Cervical, incidence rate (number)", "setting": "[1]; All Doses", "value": "0.00(1) per 100 person years"}, {"measurement": "Genitourinary: Endometrial/Uterine, incidence rate (number)", "setting": "[1]; All Doses", "value": "0.02(5) per 100 person years"}, {"measurement": "Genitourinary: Ovarian, incidence rate (number)", "setting": "[1]; All Doses", "value": "0.00(1) per 100 person years"}, {"measurement": "Genitourinary: Prostate, incidence rate (number)", "setting": "[1]; All Doses", "value": "0.17(44) per 100 person years"}, {"measurement": "Genitourinary: Testicular, incidence rate (number)", "setting": "[1]; All Doses", "value": "0.00(1) per 100 person years"}, {"measurement": "Hematopoetic: Leukemia, incidence rate (number)", "setting": "[1]; All Doses", "value": "0.02(4) per 100 person years"}, {"measurement": "Hematopoetic: Lymphoma, incidence rate (number)", "setting": "[1]; All Doses", "value": "0.05(13) per 100 person years"}, {"measurement": "Hematopoetic: Multiple myeloma, incidence rate (number)", "setting": "[1]; All Doses", "value": "0.01(2) per 100 person years"}, {"measurement": "Kidney, incidence rate (number)", "setting": "[1]; All Doses", "value": "0.09(22) per 100 person years"}, {"measurement": "Liver, incidence rate (number)", "setting": "[1]; All Doses", "value": "0.04(11) per 100 person years"}, {"measurement": "Lung Cancers: Adenocarcinoma or poorly differentiated large cell carcinoma or unspecified, incidence rate (number)", "setting": "[1]; All Doses", "value": "0.23 (59) per 100 person years"}, {"measurement": "Lung Cancers: Pleural cancer, incidence rate (number)", "setting": "[1]; All Doses", "value": 0, "unit": "per 100 person years"}, {"measurement": "Lung Cancers: Small cell lung cancer, incidence rate (number)", "setting": "[1]; All Doses", "value": "0.01 (3) per 100 person years"}, {"measurement": "Lung Cancers: Squamous cell lung carcinoma, incidence rate (number)", "setting": "[1]; All Doses", "value": "0.02 (6) per 100 person years"}, {"measurement": "Other cancer sites: Other, incidence rate (number)", "setting": "[1]; All Doses", "value": "0.05(13) per 100 person years"}, {"measurement": "Sarcoma / Bone, incidence rate (number)", "setting": "[1]; All Doses", "value": "0.01(2) per 100 person years"}, {"measurement": "Skin: Basal cell carcinoma, incidence rate (number)", "setting": "[1]; All Doses", "value": "0.26(65) per 100 person years"}, {"measurement": "Skin: Melanoma, incidence rate (number)", "setting": "[1]; All Doses", "value": "0.06(16) per 100 person years"}, {"measurement": "Skin: Other, incidence rate (number)", "setting": "[1]; All Doses", "value": "0.03(7) per 100 person years"}, {"measurement": "Skin: Squamous cell skin cancer, incidence rate (number)", "setting": "[1]; All Doses", "value": "0.17(44) per 100 person years"}, {"measurement": "share of all cancers that were lung cancers", "setting": "[1]; among those assigned to canakinumab (placebo 26.0%)", "value": 16, "unit": "%"}, {"measurement": "share of cancer deaths that were lung cancers", "setting": "[1]; among those assigned to canakinumab (placebo 47%)", "value": 34, "unit": "%"}, {"measurement": "risk of major adverse cardiovascular events (MACE)", "setting": "[2]", "value": "reduces the risk of major adverse cardiovascular events"}, {"measurement": "all-cause mortality, HR", "setting": "[3]; canakinumab groups vs placebo", "value": 0.94}, {"measurement": "non-cardiovascular mortality, HR", "setting": "[3]; canakinumab groups vs placebo", "value": 0.97}, {"measurement": "Anemia (AE reports)", "setting": "[3]; in vivo", "value": "275 (1.11)"}, {"measurement": "Erythrocytes (at 12 months): High (>6.8)", "setting": "[3]; in vivo", "value": "4 (0.07) N (%)"}, {"measurement": "Erythrocytes (at 12 months): Low (<3.3)", "setting": "[3]; in vivo", "value": "19 ( 0.32) N (%)"}, {"measurement": "Erythrocytes (at 12 months): Normal (3.3-6.8)", "setting": "[3]; in vivo", "value": "6002 (99.6) N (%)"}, {"measurement": "Leucocytes (at 12 months): High (>15,000)", "setting": "[3]; in vivo", "value": "20 (0.33) N (%)"}, {"measurement": "Leucocytes (at 12 months): Low (<3000)", "setting": "[3]; in vivo", "value": "27 (0.45) N (%)"}, {"measurement": "Leucocytes (at 12 months): Normal (3000-<15000)", "setting": "[3]; in vivo", "value": "5978 (99.2) N (%)"}, {"measurement": "Leukopenia (AE reports)", "setting": "[3]; in vivo", "value": "100 (0.40)"}, {"measurement": "Neutropenia (AE reports)", "setting": "[3]; in vivo", "value": "25 (0.10)"}, {"measurement": "Neutrophils (at 12 months): Grade 1 (1500-<LLN)", "setting": "[3]; in vivo", "value": "14 (0.24) N (%)"}, {"measurement": "Neutrophils (at 12 months): Grade 2 (1000-<1500)", "setting": "[3]; in vivo", "value": "28 (0.47) N (%)"}, {"measurement": "Neutrophils (at 12 months): Grade 3 (500-<1000)", "setting": "[3]; in vivo", "value": "5 (0.08) N (%)"}, {"measurement": "Neutrophils (at 12 months): Grade 4 (<500)", "setting": "[3]; in vivo", "value": "0 (0.00) N (%)"}, {"measurement": "Neutrophils (at 12 months): Normal N (%)", "setting": "[3]; in vivo", "value": "5891 (99.2) N (%)"}, {"measurement": "Platelets (at 12 months): Grade 1 (75,000-<LLN)", "setting": "[3]; in vivo", "value": "782 (13.0) N (%)"}, {"measurement": "Platelets (at 12 months): Grade 2 (50,000-<75,000)", "setting": "[3]; in vivo", "value": "10 (0.17) N (%)"}, {"measurement": "Platelets (at 12 months): Grade 3 (25,000-<50,000)", "setting": "[3]; in vivo", "value": "4 (0.07) N (%)"}, {"measurement": "Platelets (at 12 months): Grade 4 (<25,000)", "setting": "[3]; in vivo", "value": "0 (0.00) N (%)"}, {"measurement": "Platelets (at 12 months): Normal N (%)", "setting": "[3]; in vivo", "value": "5216 (86.8) N (%)"}, {"measurement": "Thrombocytopenia (AE reports)", "setting": "[3]; in vivo", "value": "150 (0.60)"}, {"measurement": "Serious tuberculosis infections", "setting": "[3]; similar rates in canakinumab and placebo treated groups", "value": 0.06, "unit": "%"}]}]}
